PubChem BioAssay AID2060907 (Molecular Pharmacology Branch, DTP, NCI, 2025)

Tested on: 388556-164-R-J1-PDC complex spheroid viability
Assay: Anticancer human tumor 388556-164-R-J1-PDC patient-derived colon adenocarcinoma cell line growth inhibition [RAS]
Details: for viability, T/C: stronger effect = lower value
How it was run: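 Agents were tested in combination matrices in half-log decrements from a top concentration at or near clinical Cmax (10 microM if undetermined). Targets were multi-cell spheroids of tumour lines plus HUVEC and MSC stromal cells.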
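Note: spheroids exposed to compound for 7 days before readout.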
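Throughout, for viability, T/C: 100% = DMSO vehicle control luminescence.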

CCc1c2c(nc3ccc(O)cc13)-c1cc3c(c(=O)n1C2)COC(=O)[C@]3(O)CC + C#Cc1c(F)ccc2cc(O)cc(-c3ncc4c(N5CC6CCC(C5)N6)nc(OCC56CCCN5CC(F)C6)nc4c3F)c12 was tested, and the IC50 (curve of first compound, second compound 0.0316 µM) was 94.1 nM, the IC50 (curve of first compound, second compound 0.1 µM) was 104 nM and the IC50 (curve of first compound, second compound 0.316 µM) was 97.8 nM. For the same compound, the IC50 (curve of first compound, second compound 1 µM) was 78.1 nM, the IC50 (curve of first compound, second compound 3.16 µM) was 85.6 nM and the IC50 (curve of first compound, second compound 10 µM) was 42.8 nM. The viability, T/C (second compound 0.0316 µM, first compound 0.000949 µM) was 94.4%, the viability, T/C (second compound 0.0316 µM, first compound 0.003 µM) was 96.1% and the viability, T/C (second compound 0.0316 µM, first compound 0.00949 µM) was 83.6%. For the same compound, the viability, T/C (second compound 0.0316 µM, first compound 0.03 µM) was 69%, the viability, T/C (second compound 0.0316 µM, first compound 0.0949 µM) was 50.4% and the viability, T/C (second compound 0.0316 µM, first compound 0.3 µM) was 36.2%. It also gave a viability, T/C (second compound 0.1 µM, first compound 0.000949 µM) of 108%, a viability, T/C (second compound 0.1 µM, first compound 0.003 µM) of 82.4% and a viability, T/C (second compound 0.1 µM, first compound 0.00949 µM) of 84.4%. For the same compound, the viability, T/C (second compound 0.1 µM, first compound 0.03 µM) was 70.3%, the viability, T/C (second compound 0.1 µM, first compound 0.0949 µM) was 52.6% and the viability, T/C (second compound 0.1 µM, first compound 0.3 µM) was 31.6%. The viability, T/C (second compound 0.316 µM, first compound 0.000949 µM) was 93.6%, the viability, T/C (second compound 0.316 µM, first compound 0.003 µM) was 94.8% and the viability, T/C (second compound 0.316 µM, first compound 0.00949 µM) was 71.4%. The viability, T/C (second compound 0.316 µM, first compound 0.03 µM) was 67.2%, the viability, T/C (second compound 0.316 µM, first compound 0.0949 µM) was 55.8% and the viability, T/C (second compound 0.316 µM, first compound 0.3 µM) was 25.5%. The viability, T/C (second compound 1 µM, first compound 0.000949 µM) was 92.1%, the viability, T/C (second compound 1 µM, first compound 0.003 µM) was 89% and the viability, T/C (second compound 1 µM, first compound 0.00949 µM) was 60.5%. The viability, T/C (second compound 1 µM, first compound 0.03 µM) was 71.4%, the viability, T/C (second compound 1 µM, first compound 0.0949 µM) was 50.5% and the viability, T/C (second compound 1 µM, first compound 0.3 µM) was 23.3%. It also gave a viability, T/C (second compound 3.16 µM, first compound 0.000949 µM) of 80.2%, a viability, T/C (second compound 3.16 µM, first compound 0.003 µM) of 72.8% and a viability, T/C (second compound 3.16 µM, first compound 0.00949 µM) of 66.2%. For the same compound, the viability, T/C (second compound 3.16 µM, first compound 0.03 µM) was 60.1%, the viability, T/C (second compound 3.16 µM, first compound 0.0949 µM) was 53.8% and the viability, T/C (second compound 3.16 µM, first compound 0.3 µM) was 20.8%. It also gave a viability, T/C (second compound 10 µM, first compound 0.000949 µM) of 72.4%, a viability, T/C (second compound 10 µM, first compound 0.003 µM) of 61.4% and a viability, T/C (second compound 10 µM, first compound 0.00949 µM) of 63%. The viability, T/C (second compound 10 µM, first compound 0.03 µM) was 55.1%, the viability, T/C (second compound 10 µM, first compound 0.0949 µM) was 41.1% and the viability, T/C (second compound 10 µM, first compound 0.3 µM) was 20.6%.

With NC1c2ccccc2OC12CCN(c1cnc3c(N4CCCc5ncccc54)n[nH]c3n1)CC2 (stereo unspecified) the viability, T/C (compound 0.0316 µM) was 70% [middle of 4 runs], the viability, T/C (compound 0.1 µM) was 59.9% [middle of 4 runs] and the viability, T/C (compound 0.316 µM) was 48.8% [middle of 4 runs]. The viability, T/C (compound 1 µM) was 41.2% [middle of 4 runs], the viability, T/C (compound 3.16 µM) was 43.6% [middle of 4 runs] and the viability, T/C (compound 10 µM) was 37.6% [middle of 4 runs]. The IC50 (curve of compound) was 242 nM [middle of 4 runs].

Work on CC(C)NCC(C(=O)N1CCN(c2ncnc3c2C(C)CC3O)CC1)c1ccc(Cl)cc1 (stereo unspecified) + CCn1c(-c2cc(N3CCN(C)CC3)cnc2C(C)OC)c2c3cc(ccc31)-c1csc(n1)CC(NC(=O)C1CC1C)C(=O)N1CCCC(N1)C(=O)OCC(C)(C)C2 yielded an IC50 (curve of first compound, second compound 0.000949 µM) of over 10000 nM, an IC50 (curve of first compound, second compound 0.003 µM) of over 10000 nM and an IC50 (curve of first compound, second compound 0.00949 µM) of over 10000 nM. The IC50 (curve of first compound, second compound 0.03 µM) was 5630 nM, the IC50 (curve of first compound, second compound 0.0949 µM) was under 31.6 nM and the IC50 (curve of first compound, second compound 0.3 µM) was under 31.6 nM. It also gave a viability, T/C (second compound 0.000949 µM, first compound 0.0316 µM) of 105%, a viability, T/C (second compound 0.000949 µM, first compound 0.1 µM) of 107% and a viability, T/C (second compound 0.000949 µM, first compound 0.316 µM) of 96.4%. It also gave a viability, T/C (second compound 0.000949 µM, first compound 1 µM) of 91.2%, a viability, T/C (second compound 0.000949 µM, first compound 3.16 µM) of 95% and a viability, T/C (second compound 0.000949 µM, first compound 10 µM) of 103%. It also gave a viability, T/C (second compound 0.003 µM, first compound 0.0316 µM) of 102%, a viability, T/C (second compound 0.003 µM, first compound 0.1 µM) of 96.5% and a viability, T/C (second compound 0.003 µM, first compound 0.316 µM) of 95.4%. For the same compound, the viability, T/C (second compound 0.003 µM, first compound 1 µM) was 82%, the viability, T/C (second compound 0.003 µM, first compound 3.16 µM) was 84.9% and the viability, T/C (second compound 0.003 µM, first compound 10 µM) was 88%. It also gave a viability, T/C (second compound 0.00949 µM, first compound 0.0316 µM) of 86%, a viability, T/C (second compound 0.00949 µM, first compound 0.1 µM) of 80% and a viability, T/C (second compound 0.00949 µM, first compound 0.316 µM) of 69.4%. The viability, T/C (second compound 0.00949 µM, first compound 1 µM) was 73.9%, the viability, T/C (second compound 0.00949 µM, first compound 3.16 µM) was 84.8% and the viability, T/C (second compound 0.00949 µM, first compound 10 µM) was 58.8%. The viability, T/C (second compound 0.03 µM, first compound 0.0316 µM) was 58.2%, the viability, T/C (second compound 0.03 µM, first compound 0.1 µM) was 65.7% and the viability, T/C (second compound 0.03 µM, first compound 0.316 µM) was 57.1%. It also gave a viability, T/C (second compound 0.03 µM, first compound 1 µM) of 56%, a viability, T/C (second compound 0.03 µM, first compound 3.16 µM) of 51.9% and a viability, T/C (second compound 0.03 µM, first compound 10 µM) of 47.8%. The viability, T/C (second compound 0.0949 µM, first compound 0.0316 µM) was 45.7%, the viability, T/C (second compound 0.0949 µM, first compound 0.1 µM) was 46.5% and the viability, T/C (second compound 0.0949 µM, first compound 0.316 µM) was 38.9%. The viability, T/C (second compound 0.0949 µM, first compound 1 µM) was 36.3%, the viability, T/C (second compound 0.0949 µM, first compound 3.16 µM) was 40.9% and the viability, T/C (second compound 0.0949 µM, first compound 10 µM) was 33%. It also gave a viability, T/C (second compound 0.3 µM, first compound 0.0316 µM) of 31.9%, a viability, T/C (second compound 0.3 µM, first compound 0.1 µM) of 31.5% and a viability, T/C (second compound 0.3 µM, first compound 0.316 µM) of 30.5%. The viability, T/C (second compound 0.3 µM, first compound 1 µM) was 28.1%, the viability, T/C (second compound 0.3 µM, first compound 3.16 µM) was 24.4% and the viability, T/C (second compound 0.3 µM, first compound 10 µM) was 22.8%.
